Reference: patent publication US9753023B2, “Nanofiber grid and related methods” (Carnegie Mellon University, priority 2015, dated 2017)
“Also recorded” adds a separate entry of the source.

Legend:
Format in all cases: cell-based
C2C12 mouse myoblasts [1] = test: Nanonet probe system: single-cell force evolution under cyclic sub-failure stretch with drug; details: 30-minute period; for reduction in force: cycled at 1× (one stretch per two minutes), strain rate 2 μm/s
Text: The use of a suspended nanonet platform for measuring C2C12 mouse myoblast forces attached to fibers of three diameters (250, 400, and 800 nm) representing a wide range of structural stiffness (3-50 nN/μm) in connection with the NFM is developed to allow investigations in cell adhesion forces in response to symmetric and asymmetric external perturbation in single and cyclic modes at high magnifications in real time. The combined findings are two-fold: (i) contractility-based inside-out forces are evenly distributed at the edges of the cell, and that overall force magnitudes are dependent on fiber structural stiffness, and (ii) external perturbation in symmetric and asymmetric modes biases cell-fiber failure location, without affecting the outside-in forces of cell-fiber adhesion (FIG. 5). Further measured are forces of (i) cell-cell junctions, (ii) cyclic perturbation of single cells in presence of drugs, and (iii) cancerous single-cells transitioning from a blebbing to pseudopodial morphology.
(§1) Polymeric solutions of polystyrene (Scientific Polymer Products Inc., Ontario, N.Y., Mw: 2×10^6 g·mol^−1) dissolved in xylene (Fisher Scientific, Pittsburgh, Pa.) at 14% and 5% (w/w) were prepared. Plastic coverslips (Fisher Scientific, Pittsburgh, Pa.) were cut to hollow frames and used as substrates. Suspended and aligned polystyrene (PS) nanofibers of varying diameters, spacing and orientation were deposited onto a rotating plastic hollow frame in criss-crossed patterns using the STEP platform at room temperature and 15% relative humidity. Using a custom solvent evaporation-based fusing method, the nodes of the criss-crossed patterned nanofibers were fused to form STEP nanonets with clamped boundary conditions. […]
To further evaluate the nanonet probe system for efficacy as a drug testing platform at high magnifications and temporal resolutions, we subjected cells to varying concentrations of the rho kinase (ROCK)-inhibitor Y27632 and monitored its force evolution over the same 30-minute period. […]

C2C12 mouse myoblasts [2] = test: Stress relaxation test (step strain) fitted to the standard linear solid (SLS) model
Method: as §1, with “humidity.” for “humidity. Using a custom solvent evaporation-based fusing method, the nodes of the criss-crossed patterned nanofibers were fused to form STEP nanonets with clamped boundary conditions.”
As cells experience forces, interactions between cytosol and cytoskeletal structures within their semi-permeable membrane elicit strain-rate dependent responses, but identifying physiological mechanisms for this behavior has proven difficult [Janmey, P. A., et al., J. Biol. Chem. 1994; 269:32503-13; Darling, E. M., et al., Biophys. […] Since viscoelasticity can alter the measured force at different strain rates, it is nonetheless an important parameter to qualitatively describe even without complete knowledge of the contribution of individual cellular components [Ketene, A. N., et al., Integr. […] Viscoelastic response is quantified through the classic stress relaxation test [Nagayama, K., et al., Med. Eng. […]

DBTRG-05MG glioma cells [3] = test: Inside-out contractile single cell force and spreading area on nanonets
Method: (§2) According to one aspect of the methods described herein, using a highly aggressive glioma model (DBTRG-05MG), the platform technology using nanonets fused in crossed patterns manufactured using the non-electrospinning STEP technique serves to quantify single cell force modulation (both inside-out and outside-in) with and without the presence of a cytoskeleton altering drug (cytochalasin D) using suspended and aligned fiber networks (nanonets) beginning to represent the aligned glioma environment. This platform technology allows to measure contractile single cell forces exerted by glioma cells attached to and migrating along the fiber axis (inside-out). Further, the force response of glioma cells attached to two parallel fibers using a probe deflecting the leading fiber (outside-in) is measured. The forces are calculated using beam deflection within the elastic limit. […] The platform technology also allows for measuring changes in cell morphology, such as shape, area, etc. This technology allows the physiologically relevant aligned fiber networks used as ultra-sensitive force (˜nanoNewtons) probes for investigating drug response and efficacy in disease models at the single cell resolution.

DBTRG-05MG glioma cells [4] = test: Outside-in force response to a probe deflecting the leading fiber on nanonets
Method: as §2

`C[C@@H](N)[C@H]1CC[C@H](C(=O)Nc2ccncc2)CC1` [Y27632] was tested, and the reduction in force (C2C12 mouse myoblasts [1]; 10 μM) was 38%, the reduction in force (C2C12 mouse myoblasts [1]; 100 μM) was 57% and the “reaching a steady-state force value” (C2C12 mouse myoblasts [1]; ROCK-inhibited cells versus cyclically-perturbed cells) was “did not”.
`Cc1ccc2c(c1)C(=O)C1(O)CCN(c3ccccc3)C1=N2` (centres unmarked) [blebbistatin] was tested, and the “relative contributions of SLS parameters k1, k2 and η (normalized)” value (C2C12 mouse myoblasts [2]; 50 μM blebbistatin, myosin-II disrupted) was “shifting in the relative contributions from k2 to η; also recorded: shift in major contribution from k2 to η”.
For `C=C1[C@@H](C)[C@H]2[C@H](Cc3ccccc3)NC(=O)[C@]23[C@H](OC(C)=O)/C=C/[C@@](C)(O)C(=O)[C@@H](C)C/C=C/[C@H]3[C@@H]1O` [cytochalasin D], the “'inside-out' contractile forces” value (DBTRG-05MG glioma cells [3]) was “decreasing”, the “spreading area of single glioma cells” value (DBTRG-05MG glioma cells [3]) was “compromises the spreading area” and the “'outside-in' force response to external strain” value (DBTRG-05MG glioma cells [4]) was “decreasing”.
`COC(=O)Nc1nc2ccc(C(=O)c3cccs3)cc2[nH]1` [nocodazole] was tested, and the “relative contributions of SLS parameters k1, k2 and η (normalized)” value (C2C12 mouse myoblasts [2]; 10 μM nocodazole, microtubules depolymerized) was “shifting in the relative contributions from k2 to η; also recorded: shift in major contribution from k2 to η”.
